{"source": "patent EP0244062A2", "about": "“Use of aryl ethanol amine derivatives in the treatment of atherosclerosis” (BEECHAM GROUP PLC, priority 1986, dated 1987)", "key": {"[1]": {"system": "hypercholesterolaemic mice", "test": "Cholesterol reduction in hypercholesterolaemic mice on a high cholesterol-cholic acid diet (Example 4)", "type": "in vivo", "conditions": "oral; for % Reduction LDL + VLDL cholesterol: heparin precipitation", "procedure": "Compound P2 provided the following results with hypercholesterolaemic mice: Mice were made hypercholesterolaemic by being fed on a high cholesterol-cholic acid diet for seven days and were dosed orally on the sixth and seventh days. Low density and very low density lipoprotein (LDL and VLDL) cholesterol were measured together by heparin precipitation."}, "normal mice": {"system": "normal mice", "test": "Serum lipids in normal mice dosed daily for 28 days (Example 1)", "type": "in vivo", "conditions": "normal female CFLP mice, mean of 8 ± S.E.; for Serum triglyceride: untreated 40.0±3.2, P < 0.001; for Serum cholesterol: untreated 67.6±2.4", "procedure": "Compound P1 provided the following results with normal mice: Normal female CFLP mice were dosed daily at 11.00h for 28 days. One group was also dosed at 17.00h daily. 0n the day after dosing terminated they were killed at 14.00h. Results are means of 8 values ± S.E."}, "[2]": {"system": "Goldthioglucose-induced obese mice", "test": "Serum lipids in goldthioglucose-induced obese mice (Example 2)", "type": "in vivo", "conditions": "goldthioglucose-induced obese female CFLP mice, 20 mg/kg p.o. once daily for 28 days, mean of 4 ± S.E.", "procedure": "Compound Pl provided the following results with Goldthioglucose-induced obese mice: . Female CFLP mice were given goldthioglucose (0.85 mg/g body wt., i.p.) and after 17 weeks the obese mice (mean wt. 57g) were selected and randomized into two groups of 4. The compound (20 mg/kg, p.o.) or water was given once daily for 28 days and the mice were killed the day after the last dose. Results are means of 4 values ± S.E."}, "[3]": {"system": "High fat diet-induced obese mice", "test": "Serum lipids in high fat diet-induced obese mice (Example 3)", "type": "in vivo", "conditions": "high fat diet-induced obese female CFLP mice, 20 mg/kg p.o. once daily for 28 days, mean ± S.E. (n=12)", "procedure": "Compound Pl provided the following results with High fat diet-induced obese mice: Female CFLP mice were fed on a high protein, high fat diet. After 13 weeks the obese mice (mean wt. 49g) were selected and randomized into groups of 12. The compound (20 mg/kg, p.o.) or water was given once daily for 28 days and the mice were killed the day after the last dose. Results are means ± S.E, with numbers of determinations in parentheses."}, "Male rats": {"system": "Male rats", "test": "Serum lipids in rats given the compound in the diet for 7 days (Example 5)", "type": "in vivo", "conditions": "0.1 g of the compound per kg of diet for 7 days, mean of 8 ± S.E.", "text": "Compound P3 provided the following results with rats: Male rats were fed on a normal diet or on a diet that contained O.lg of the compound per kg of diet for 7 days. Results are means of 8 values ± S.E."}, "Obese subjects [4]": {"system": "Obese subjects", "test": "Clinical first study: obese subjects on a low energy liquid formula diet, six weeks (Example 6)", "type": "in vivo, human", "conditions": "50 mg pfb, qds for six weeks, fasted", "procedure": "Clinical studies using compound P3: First study Obese subjects (at least 20% above ideal weight) were given a low energy liquid formula diet and treated with the compound (50 mg pfb, qds) or placebo for six weeks. Serum triglyceride and cholesterol were measured in the fasted state just prior to the first dose and on the morning after the last dose of compound or placebo. Results are means ± S.E. with the number of subjects in parenthesis."}, "Obese subjects [5]": {"system": "Obese subjects", "test": "Clinical second study: crossover in obese subjects on a low energy high fibre diet, 2 x six weeks (Example 6)", "type": "in vivo, human", "conditions": "50 mg pfb qds first week, then 100 mg qds, fasted", "procedure": "Clinical studies using compound P3: Second study Obese subjects (at least 20X above ideal weight) were given a low energy high fibre diet and treated with the compound or placebo for six weeks after which they were given the alternative treatment for a further six weeks. For the first week of treatment (weeks 1 or 7) the dose level was 50 mg pfb, qds and after this it was 100 mg qds. Serum lipids were measured in the fasted state just prior to the first dose and after each six week period of dosing. Results are means ± S.E. with the number of subjects in parentheses."}, "Zucker fa/fa male rats": {"system": "Zucker fa/fa male rats", "test": "Plasma lipids in Zucker fa/fa rats dosed once daily for 39 days (Example 7)", "type": "in vivo", "conditions": "7.8µmol/kg once daily for 39 days, mean of 8 ± S.E.M.", "procedure": "Zucker fa/fa male rats of about 550g were dosed once daily with either water or Compound P3 (7.8µmol/kg) for 39 days. Results are means of 8 values ± S.E.M."}, "[6]": {"conditions": "total dose on days 6 and 7 5 mg/kg"}, "[7]": {"conditions": "total dose on days 6 and 7 10 mg/kg"}, "[8]": {"conditions": "total dose on days 6 and 7 25 mg/kg"}, "[9]": {"conditions": "2.5 mg/kg body wt. p.o. daily for 28 days"}, "[10]": {"conditions": "2.5 mg/kg body wt. p.o. twice daily for 28 days"}, "[11]": {"conditions": "5 mg/kg body wt. p.o. daily for 28 days"}, "[12]": {"conditions": "10 mg/kg body wt. p.o. daily for 28 days"}, "[13]": {"conditions": "15 mg/kg body wt. p.o. daily for 28 days"}}, "data": [{"smiles": "COC(=O)COc1ccc(C[C@@H](C)NC[C@H](O)c2cccc(Cl)c2)cc1", "note": "(racemic) [Compound P2, N-(2-(4-carbomethoxymethoxyphenyl)-1-methylethyl)--2-hydroxy-2-(3-chlorophenyl)ethanamine nydrobromide]", "values": [{"measurement": "% Reduction Total cholesterol", "setting": "[1]; [6]", "value": 24, "unit": "%"}, {"measurement": "% Reduction LDL + VLDL cholesterol", "setting": "[1]; [6]", "value": 29, "unit": "%"}, {"measurement": "% Reduction Total cholesterol", "setting": "[1]; [7]", "value": 22, "unit": "%"}, {"measurement": "% Reduction LDL + VLDL cholesterol", "setting": "[1]; [7]", "value": 28, "unit": "%"}, {"measurement": "% Reduction Total cholesterol", "setting": "[1]; [8]", "value": 34, "unit": "%"}, {"measurement": "% Reduction LDL + VLDL cholesterol", "setting": "[1]; [8]", "value": 55, "unit": "%"}]}, {"smiles": "COC(=O)c1ccc(CC(C)NCC(O)c2ccc(O)c(CO)c2)cc1", "note": "(centres unmarked) [Compound P1, N-(2-(4-carbomethoxghenyl)-1-metnylethyl) -2-hydroxy-2-(4-hydroxy-3-hydroxymethylphenyl) ethanamine]", "values": [{"measurement": "Serum triglyceride", "setting": "normal mice; [9]", "value": "21.5±1.1", "unit": "mg/100 ml"}, {"measurement": "Serum cholesterol", "setting": "normal mice; [9]", "value": "67.0±3.2", "unit": "mg/100 ml"}, {"measurement": "Serum triglyceride", "setting": "normal mice; [10]", "value": "16.4±0.8", "unit": "mg/100 ml"}, {"measurement": "Serum cholesterol", "setting": "normal mice; [10]", "value": "74.4±1.7", "unit": "mg/100 ml"}, {"measurement": "Serum triglyceride", "setting": "normal mice; [11]", "value": "16.3±1.1", "unit": "mg/100 ml"}, {"measurement": "Serum cholesterol", "setting": "normal mice; [11]", "value": "69.1±2.4", "unit": "mg/100 ml"}, {"measurement": "Serum triglyceride", "setting": "normal mice; [12]", "value": "14.5±0.7", "unit": "mg/100 ml"}, {"measurement": "Serum cholesterol", "setting": "normal mice; [12]", "value": "68.4±3.3", "unit": "mg/100 ml"}, {"measurement": "Serum triglyceride", "setting": "normal mice; [13]", "value": "14.3±0.8", "unit": "mg/100 ml"}, {"measurement": "Serum cholesterol", "setting": "normal mice; [13]", "value": "71.0±2.4", "unit": "mg/100 ml"}, {"measurement": "Serum triglyceride", "setting": "[2]; control 35±4, P < 0.05", "value": "22±3", "unit": "mg/100 ml"}, {"measurement": "Serum cholesterol", "setting": "[2]; control 82±4", "value": "81±6", "unit": "mg/100 ml"}, {"measurement": "Serum triglyceride", "setting": "[3]; control 73±8, P < 0.01", "value": "34±2**(12) mg/100ml"}, {"measurement": "Serum cholesterol", "setting": "[3]; control 118±3, P < 0.05", "value": "103±5*(12) mg/100ml"}]}, {"smiles": "COC(=O)c1ccc(C[C@@H](C)NC[C@H](O)c2ccccc2)cc1", "note": "(racemic) [Compound P3, N-[2-(4-carbomethoxyphenyl)-1-methylethyl]-2-hydroxy-2-phenylethanamine hemifumarate]", "values": [{"measurement": "Serum cholesterol", "setting": "Male rats; control 52±2", "value": "54±3", "unit": "mg/100ml"}, {"measurement": "Serum triglyceride", "setting": "Male rats; control 112±10, P < 0.05", "value": "70±4", "unit": "mg/100ml"}, {"measurement": "Serum triglyceride % Fall", "setting": "Obese subjects [4]; initial 2.05±0.16 mM (4), subjects with initial levels below 1 mM excluded, placebo 21±7", "value": "52±6", "unit": "%"}, {"measurement": "Serum cholesterol % Fall", "setting": "Obese subjects [4]; initial 5.81±0.44 mM (5), placebo 19±5", "value": "21±7", "unit": "%"}, {"measurement": "HDL cholesterol % change", "setting": "Obese subjects [5]; 1st 6 weeks, initial 1.50±0.07 mM (15), placebo -10±3", "value": "0±4", "unit": "%"}, {"measurement": "Serum triglyceride % change", "setting": "Obese subjects [5]; 1st 6 weeks, initial 1.57±0.18 mM (15), placebo -12±5", "value": "-25±5", "unit": "%"}, {"measurement": "Serum cholesterol % change", "setting": "Obese subjects [5]; 1st 6 weeks, initial 6.10±0.24 mM (15), placebo -13±3", "value": "-9±3", "unit": "%"}, {"measurement": "Serum triglyceride % change", "setting": "Obese subjects [5]; 2nd 6 weeks (after crossover), initial 1.21±0.18 mM (15), placebo +33±10", "value": "-4±8", "unit": "%"}, {"measurement": "HDL cholesterol % change", "setting": "Obese subjects [5]; 2nd 6 weeks (after crossover), initial 1.30±0.04 mM (15), placebo -5±4", "value": "+14±3%"}, {"measurement": "Serum cholesterol % change", "setting": "Obese subjects [5]; 2nd 6 weeks (after crossover), initial 5.30±0.29 mM (15), placebo +4±3", "value": "+5±3%"}, {"measurement": "Plasma Cholesterol", "setting": "Zucker fa/fa male rats; water 3.44 ± 0.10, p < 0.05", "value": "3.07 ± 0.14", "unit": "mM"}, {"measurement": "Plasma Triglyceride", "setting": "Zucker fa/fa male rats; water 9.3 ± 0.7, p < 0.02", "value": "5.9 ± 0.9", "unit": "mM"}]}]}
